The values that follow come from US20250107513A1, “METHOD FOR COUNTING EMBRYOS DEVELOPING IN A UTERUS OF CAENORHABDITIS ELEGANS” (Shanghai University, priority 2022, published 2025).

The test system of the data set is Caenorhabditis elegans. Briefly: counting embryos developing in the uterus of Caenorhabditis elegans after TPHP exposure. Type of data set: in vivo. The conditions noted are these: then cultured until pregnancy, relative to the control group, p<0.01. The procedure: As shown in a flowchart (FIG. 1) of a method in the present invention, this embodiment provides a method for counting embryos developing in a uterus of Caenorhabditis elegans exposed to a chemical of triphenyl phosphate (TPHP) for 72 hours, specifically including the following steps:
Step 5: Subject Caenorhabditis elegans to synchronization treatment. Nematode eggs are added dropwise to the NGM medium containing no E. coli, the nematode eggs are cultured at 20° C. for 16 to 20 hours under dark conditions, where Caenorhabditis elegans are in the L1 stage, and Caenorhabditis elegans at the stage are rinsed into a 1.5 mL centrifuge tube with the K solution 3 times.
Step 6: Prepare exposure solutions. 0.1000 g of TPHP solid is weighed accurately, the TPHP solid is dissolved in dimethyl sulfoxide until a concentration reaches 10 g/L, and then TPHP solutions are diluted with dimethyl sulfoxide again until concentrations reach 10 mg/L, 100 mg/L, 1000 mg/L and 5000 mg/L to be used as mother liquors later. Dimethyl sulfoxide is used as the mother liquor of the blank control group. The mother liquors are further diluted by 100 folds with the K solution and then diluting the diluted mother liquors by 100 folds with a K+ solution to finally obtain exposure solutions of Caenorhabditis elegans containing 0 μg/L (control group), 1 μg/L, 10 μg/L, 100 μg/L and 500 μg/L TPHP.
Step 7: Expose Caenorhabditis elegans to a TPHP solution. A prepared TPHP exposure solution is added to a sterile 6-well plate with 5 mL of prepared TPHP exposure solution per well. Caenorhabditis elegans at the L1 stage are then evenly added to the 6-well plate after the synchronization treatment, Caenorhabditis elegans are fed with 100 μg/L E. coli daily, and Caenorhabditis elegans are cultured for 72 hours.
Step 8: Select Caenorhabditis elegans at an exposure stage. The method in the present invention is applicable to pregnant Caenorhabditis elegans, and this is because Caenorhabditis elegans are […] after being exposed to TPHP for 72 hours. […]
Step 11: Count embryos in the uterus of Caenorhabditis elegans. The 24-well plate containing transparent Caenorhabditis elegans is put under an optical stereomicroscope, and exposed embryos of each Caenorhabditis elegans are counted, where exposed embryos of at least 25 nematodes are counted in each treatment group.
Step 12: Analyze data. Data is analyzed by using SPSS software, a confidence interval of samples is set to 95%, and an intra-group mean and mean error of the numbers of embryos developing in nematodes in different treatment groups are calculated, where the data can be selectively in a format of a mean percentage or multiple based on requirements of the experiment. […]

For the compound `O=P(Oc1ccccc1)(Oc1ccccc1)Oc1ccccc1` [TPHP, triphenyl phosphate], the “decrease in the numbers of embryos in the uteri” value by setting is: (exposure to 1 μg/L TPHP from L1 stage for 72 hours) 14.2%; (exposure to 10 μg/L TPHP from L1 stage for 72 hours) 18.2%; (exposure to 100 μg/L TPHP from L1 stage for 72 hours) 18.1%; (exposure to 500 μg/L TPHP from L1 stage for 72 hours) 21.8%.
